Data taken from patent publication US20240166624A1, “PPARG INVERSE AGONISTS AND USES THEREOF” (Flare Therapeutics Inc., priority 2021, published 2024).

Experiments:
[1] = tested on: ANGPTL4, a PPARG target gene, in HT1197 (RXRA S427F mutation) cells; assay: Bladder cancer pharmacodynamic assay, HT1197 cell assay (qPCR of ANGPTL4); type: cell-based; conditions: Homo sapiens, 24 hours, 100 nM compound, relative to DMSO control
Summary of the method: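 5637 (PPARG amplified) and HT1197 (RXRA S427F) cells treated 24 h with PPARG inverse agonists. FABP4 and ANGPTL4 expression measured by qPCR, normalised to TBP, and reported relative to DMSO control by ΔΔCt.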

[2] = target: T1, PPARG/RXRA LBD heterodimer (Homo sapiens, UniProt P37231); assay: PPARγ-NCOR1 recruitment assay (TR-FRET, biotinylated NCOR1 ID2 peptide); type: biochemical; conditions: 80 nM Rosiglitazone, 3 hours, read-out: PPARG-NCOR recruitment assay EC50
T1 construct: His-TEV-Q203-Y477; Uniprot ID P37231-2; made in house; host or cells: E. coli
Summary of the method: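 2 nM each of E. coli-expressed PPARG LBD (Q203-Y477) and RXRA LBD (WT or S427F, E228-T462) with biotinylated NCOR1 ID2 peptide, incubated 3 h; TR-FRET read at Ex/Em 615/665. Ratios normalized to DMSO (0%) and T0070907 maximum (100%) for EC50 and maximal recruitment.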
T1 sequence (O75376 2251-2273 partner, one chain of several): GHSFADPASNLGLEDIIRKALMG

[3] = target: T2, PPARG/RXRA LBD heterodimer (Homo sapiens, UniProt P37231); assay: PPARγ-MED1 blockade assay (TR-FRET, biotinylated MED1 LxxLL peptide); type: biochemical; conditions: WT PPARG LBD/WT RXRA LBD, 80 nM Rosiglitazone, 3 hours
T2 construct: His-TEV-Q203-Y477; Uniprot ID P37231-2; made in house; host or cells: E. coli
T2 sequence (P37231 203-477 isoform P37231-2): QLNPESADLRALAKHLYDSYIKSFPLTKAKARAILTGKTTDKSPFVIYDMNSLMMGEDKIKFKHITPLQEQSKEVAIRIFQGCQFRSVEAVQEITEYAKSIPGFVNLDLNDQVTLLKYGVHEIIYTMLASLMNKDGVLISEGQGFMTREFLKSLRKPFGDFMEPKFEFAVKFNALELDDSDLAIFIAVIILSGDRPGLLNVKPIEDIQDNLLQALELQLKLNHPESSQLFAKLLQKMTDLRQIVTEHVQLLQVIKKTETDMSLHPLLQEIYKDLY
T2 sequence (P19793 228-462 partner limits assumed): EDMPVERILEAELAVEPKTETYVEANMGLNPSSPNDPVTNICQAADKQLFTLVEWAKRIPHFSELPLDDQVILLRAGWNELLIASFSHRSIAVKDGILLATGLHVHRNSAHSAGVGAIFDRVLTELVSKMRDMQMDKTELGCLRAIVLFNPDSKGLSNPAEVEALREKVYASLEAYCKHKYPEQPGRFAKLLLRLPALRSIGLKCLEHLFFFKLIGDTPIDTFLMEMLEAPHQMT
Summary of the method: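 TR-FRET measuring biotinylated MED1 LxxLL peptide association with 2 nM each His-PPARG LBD (Q203-Y477) and Flag-RXRA LBD (E228-T462), E. coli expressed. Read after 3 h incubation; ratios normalized to DMSO (0%) and GW9662 minimum (100%) for IC50 and maximal MED1 repulsion.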

| Structure (SMILES) | inhibition at 0.1 µM [1] [%] | EC50 [2] [nM] | EC50 [3] [nM] |
| --- | --- | --- | --- |
| N#Cc1ccc(Cl)c(-c2cc(=O)c3c(F)c(-c4ccnc(CO)c4)c(F)cc3[nH]2)c1 [Example 71, 4-chloro-3-(5,7-difluoro-6-(2-(hydroxymethyl)pyridin-4-yl)-4-oxo-1,4-dihydroquinolin-2-yl)benzonitrile] | 51 | 1000 to 10000 | 1000 to 10000 |
| COCCn1ccc(-c2c(F)cc3[nH]c(-c4cc(C#N)ccc4Cl)cc(=O)c3c2F)n1 [Example 72, 4-chloro-3-(5,7-difluoro-6-(1-(2-methoxyethyl)-1H-pyrazol-3-yl)-4-oxo-1,4-dihydroquinolin-2-yl)benzonitrile] | 79 | 100 to 1000 | 100 to 1000 |
| N#Cc1ccc(Cl)c(-c2cc(=O)c3c(F)c(-c4ccc(C(F)F)nc4)c(F)cc3[nH]2)c1 [Example 73, 4-chloro-3-(6-(6-(difluoromethyl)pyridin-3-yl)-5,7-difluoro-4-oxo-1,4-dihydroquinolin-2-yl)benzonitrile] | 85 | 10 to 100 | 10 to 100 |
| N#Cc1ccc(Cl)c(-c2cc(=O)c3c(F)c(-c4cccc(C(=O)O)c4)c(F)cc3[nH]2)c1 [Example 74, 3-(2-(2-chloro-5-cyanophenyl)-5,7-difluoro-4-oxo-1,4-dihydroquinolin-6-yl)benzoic acid] | 12 | 100 to 1000 | 100 to 1000 |
| N#Cc1ccc(Cl)c(-c2cc(=O)c3c(F)c(-c4ccc(C(=O)O)cc4)c(F)cc3[nH]2)c1 [Example 75, 4-(2-(2-chloro-5-cyanophenyl)-5,7-difluoro-4-oxo-1,4-dihydroquinolin-6-yl)benzoic acid] | 20 | 1000 to 10000 | 1000 to 10000 |
| N#Cc1ccc(Cl)c(-c2cc(=O)c3c(F)c(-c4ccc(CC(=O)O)cc4)c(F)cc3[nH]2)c1 [Example 76, 2-(4-(2-(2-chloro-5-cyanophenyl)-5,7-difluoro-4-oxo-1,4-dihydroquinolin-6-yl)phenyl)acetic acid] | 39 | 100 to 1000 | 100 to 1000 |
| N#Cc1ccc(Cl)c(-c2cc(=O)c3c(F)c(CCC(=O)O)c(F)cc3[nH]2)c1 [Example 77, 3-(2-(2-chloro-5-cyanophenyl)-5,7-difluoro-4-oxo-1,4-dihydroquinolin-6-yl)propanoic acid] | 44 | 1000 to 10000 | 1000 to 10000 |
| CNC(=O)c1cccc(-c2c(F)cc3[nH]c(-c4cc(C#N)ccc4Cl)cc(=O)c3c2F)c1 [Example 78, 3-(2-(2-chloro-5-cyanophenyl)-5,7-difluoro-4-oxo-1,4-dihydroquinolin-6-yl)-N-methylbenzamide] | 36 | 100 to 1000 | 100 to 1000 |
| CNC(=O)c1ccc(-c2c(F)cc3[nH]c(-c4cc(C#N)ccc4Cl)cc(=O)c3c2F)cc1 [Example 79, 4-(2-(2-chloro-5-cyanophenyl)-5,7-difluoro-4-oxo-1,4-dihydroquinolin-6-yl)-N-methylbenzamide] | 58 | 100 to 1000 | 100 to 1000 |
| CNC(=O)Cc1ccc(-c2c(F)cc3[nH]c(-c4cc(C#N)ccc4Cl)cc(=O)c3c2F)cc1 [Example 80, 2-(4-(2-(2-chloro-5-cyanophenyl)-5,7-difluoro-4-oxo-1,4-dihydroquinolin-6-yl)phenyl)-N-methylacetamide] | 47 | 100 to 1000 | 100 to 1000 |
| CNC(=O)CCc1c(F)cc2[nH]c(-c3cc(C#N)ccc3Cl)cc(=O)c2c1F [Example 81, 3-(2-(2-chloro-5-cyanophenyl)-5,7-difluoro-4-oxo-1,4-dihydroquinolin-6-yl)-N-methylpropanamide] | 46 | 1000 to 10000 | > 10000 |
| CN(C)C(=O)c1cc(-c2c(F)cc3[nH]c(-c4cc(C#N)ccc4Cl)cc(=O)c3c2F)ccc1F [Example 82, 5-(2-(2-chloro-5-cyanophenyl)-5,7-difluoro-4-oxo-1,4-dihydroquinolin-6-yl)-2-fluoro-N,N-dimethylbenzamide] | 70 | 100 to 1000 | 100 to 1000 |
| CN(C)C(=O)c1c(F)ccc(-c2c(F)cc3[nH]c(-c4cc(C#N)ccc4Cl)cc(=O)c3c2F)c1F [Example 83, 3-(2-(2-chloro-5-cyanophenyl)-5,7-difluoro-4-oxo-1,4-dihydroquinolin-6-yl)-2,6-difluoro-N,N-dimethylbenzamide] | 76 | 100 to 1000 | 100 to 1000 |
| CN(C)C(=O)CCc1c(F)cc2[nH]c(-c3cc(C#N)ccc3Cl)cc(=O)c2c1F [Example 84, 3-(2-(2-chloro-5-cyanophenyl)-5,7-difluoro-4-oxo-1,4-dihydroquinolin-6-yl)-N,N-dimethylpropanamide] | 67 | 1000 to 10000 | 1000 to 10000 |
| CN(C)C(=O)c1cccc(-c2c(F)cc3[nH]c(-c4cc(C#N)ccc4Cl)cc(=O)c3c2F)n1 [Example 85, 6-(2-(2-chloro-5-cyanophenyl)-5,7-difluoro-4-oxo-1,4-dihydroquinolin-6-yl)-N,N-dimethylpicolinamide] | 59 | 1000 to 10000 | 1000 to 10000 |
| CN(C)C(=O)c1cc(-c2c(F)cc3[nH]c(-c4cc(C#N)ccc4Cl)cc(=O)c3c2F)cc(F)c1F [Example 86, 5-(2-(2-chloro-5-cyanophenyl)-5,7-difluoro-4-oxo-1,4-dihydroquinolin-6-yl)-2,3-difluoro-N,N-dimethylbenzamide] | 75 | 100 to 1000 | 100 to 1000 |
| CN(C)C(=O)c1cc(-c2c(F)cc3[nH]c(-c4cc(C#N)ccc4Cl)cc(=O)c3c2F)c(F)cc1F [Example 87, 5-(2-(2-chloro-5-cyanophenyl)-5,7-difluoro-4-oxo-1,4-dihydroquinolin-6-yl)-2,4-difluoro-N,N-dimethylbenzamide] | 75 | 100 to 1000 | 100 to 1000 |
| CN(C)C(=O)c1cc(-c2c(F)cc3[nH]c(-c4cc(C#N)ccc4Cl)cc(=O)c3c2F)ccn1 [Example 88, 4-(2-(2-chloro-5-cyanophenyl)-5,7-difluoro-4-oxo-1,4-dihydroquinolin-6-yl)-N,N-dimethylpicolinamide] | 41 | 1000 to 10000 | > 10000 |
| CN(C)C(=O)c1cc(-c2c(F)cc3[nH]c(-c4cc(C#N)ccc4Cl)cc(=O)c3c2F)ccc1C(F)(F)F [Example 89, 5-(2-(2-chloro-5-cyanophenyl)-5,7-difluoro-4-oxo-1,4-dihydroquinolin-6-yl)-N,N-dimethyl-2-(trifluoromethyl)benzamide] | 56 | 100 to 1000 | 100 to 1000 |
| N#Cc1ccc(Cl)c(-c2cc(=O)c3c(F)c(C(O)CO)c(F)cc3[nH]2)c1 (stereo not drawn) [Example 90, 4-chloro-3-(6-(1,2-dihydroxyethyl)-5,7-difluoro-4-oxo-1,4-dihdroquinolin-2-yl)benzonitrile] | 0 | 1000 to 10000 | > 10000 |
| N#Cc1ccc(Cl)c(-c2cc(=O)c3c(F)c(-c4ccn(CC(O)CO)n4)c(F)cc3[nH]2)c1 (stereo not drawn) [Example 92, 4-chloro-3-(6-(1-(2,3-dihydroxypropyl)-1H-pyrazol-3-yl)-5,7-difluoro-4-oxo-1,4-dihydroquinolin-2-yl)benzonitrile] | 24 | 100 to 1000 | 100 to 1000 |
| N#Cc1ccc(Cl)c(-c2cc(=O)c3c(F)c(C4=CCNCC4)c(F)cc3[nH]2)c1 [Example 93, 4-chloro-3-(5,7-difluoro-4-oxo-6-(1,2,3,6-tetrahydropyridin-4-yl)-14-dihydroquinolin-2-yl)benzonitrile] | 48 | 1000 to 10000 | 1000 to 10000 |
| N#Cc1ccc(Cl)c(-c2cc(=O)c3c(F)c(C4CCNCC4)c(F)cc3[nH]2)c1 [Example 94, 4-chloro-3-(5,7-difluoro-4-oxo-6-(piperidin-4-yl)-1,4-dihydroquinolin-2-yl)benzonitrile] | 27 | 1000 to 10000 | 1000 to 10000 |
| CC(=O)N1CCC(c2c(F)cc3[nH]c(-c4cc(C#N)ccc4Cl)cc(=O)c3c2F)CC1 [Example 95, 3-(6-(1-acetylpiperidin-4-yl)-5,7-difluoro-4-oxo-1,4-dihydroquinolin-2-yl)-4-chlorobenzonitrile] | 87 | 100 to 1000 | 100 to 1000 |
